Measured values taken from ChEMBL document CHEMBL4145497, “Discovery of 2-aminothiazolyl berberine derivatives as effectively antibacterial agents toward clinically drug-resistant Gram-negative Acinetobacter baumanii” (Eur J Med Chem, 2018).
Values after ≈ are worked out from the molar mass of the structure shown.

Assays:
Format in all cases: functional
Staphylococcus aureus [1] = assay: Antibacterial activity against Staphylococcus aureus ATCC 25923 after 18 to 24 hrs by CLSI two fold serial dilution method
Enterococcus faecalis = assay: Antibacterial activity against drug-resistant Enterococcus faecalis after 18 to 24 hrs by CLSI two fold serial dilution method
Pseudomonas aeruginosa [2] = assay: Antibacterial activity against drug-resistant Pseudomonas aeruginosa after 18 to 24 hrs by CLSI two fold serial dilution method
Escherichia coli [3] = assay: Antibacterial activity against Escherichia coli DH52 after 18 to 24 hrs by CLSI two fold serial dilution method
Aspergillus flavus = assay: Antifungal activity against Aspergillus flavus ATCC 204304 by CLSI two fold serial dilution method
Pseudomonas aeruginosa [4] = assay: Antibacterial activity against Pseudomonas aeruginosa ATCC 27853 after 18 to 24 hrs by CLSI two fold serial dilution method
Saccharomyces cerevisiae = assay: Antifungal activity against Saccharomyces cerevisiae ATCC 9763 by CLSI two fold serial dilution method
Candida tropicalis = assay: Antifungal activity against drug-resistant Candida tropicalis by CLSI two fold serial dilution method
Pichia norvegensis = assay: Antifungal activity against Candida mycoderma ATCC 96918 by CLSI two fold serial dilution method
Candida albicans [5] = assay: Antifungal activity against drug-resistant Candida albicans by CLSI two fold serial dilution method
Staphylococcus aureus [6] = assay: Antibacterial activity against methicillin-resistant Staphylococcus aureus N315 after 18 to 24 hrs by CLSI two fold serial dilution method
Candida albicans [7] = assay: Antifungal activity against Candida albicans ATCC 76615 by CLSI two fold serial dilution method
Klebsiella pneumoniae = assay: Antibacterial activity against drug-resistant Klebsiella pneumoniae after 18 to 24 hrs by CLSI two fold serial dilution method
Acinetobacter baumannii = assay: Antibacterial activity against drug-resistant Acinetobacter baumannii after 18 to 24 hrs by CLSI two fold serial dilution method
Bacillus subtilis = assay: Antibacterial activity against Bacillus subtilis ATCC 21216 after 18 to 24 hrs by CLSI two fold serial dilution method
Cyberlindnera jadinii = assay: Antifungal activity against Candida utilis ATCC 9950 by CLSI two fold serial dilution method; conditions: Williopsis jadinii
Micrococcus luteus = assay: Antibacterial activity against Micrococcus luteus ATCC 4698 after 18 to 24 hrs by CLSI two fold serial dilution method
Candida parapsilosis = assay: Antifungal activity against Candida parapsilosis ATCC 22019 by CLSI two fold serial dilution method; conditions: Lodderomyces parapsilosis
Escherichia coli [8] = assay: Antibacterial activity against drug-resistant Escherichia coli after 18 to 24 hrs by CLSI two fold serial dilution method
Aspergillus fumigatus = assay: Antifungal activity against drug-resistant Aspergillus fumigatus by CLSI two fold serial dilution method

SMILES	MIC (Staphylococcus aureus [1]) [µM]	MIC (Enterococcus faecalis) [µM]	MIC (Pseudomonas aeruginosa [2]) [µM]	MIC (Escherichia coli [3]) [µM]	MIC (Aspergillus flavus) [µM]	MIC (Pseudomonas aeruginosa [4]) [µM]	MIC (Saccharomyces cerevisiae) [µM]	MIC (Candida tropicalis) [µM]	MIC (Pichia norvegensis) [µM]	MIC (Candida albicans [5]) [µM]	MIC (Staphylococcus aureus [6]) [µM]	MIC (Candida albicans [7]) [µM]	MIC (Klebsiella pneumoniae) [µM]	MIC (Acinetobacter baumannii) [µM]	MIC (Bacillus subtilis) [µM]	MIC (Cyberlindnera jadinii) [µM]	MIC (Micrococcus luteus) [µM]	MIC (Candida parapsilosis) [µM]	MIC (Escherichia coli [8]) [µM]	MIC (Aspergillus fumigatus) [µM]
COc1cc(/C=N/NC(N)=S)c2c(c1OCC#N)CN1CCc3cc4c(cc3C1C2)OCO4 (stereo not drawn)	280 (≈ 130 µg/mL)	280 (≈ 130 µg/mL)	280 (≈ 130 µg/mL)	280 (≈ 130 µg/mL)	280 (≈ 130 µg/mL)	280 (≈ 130 µg/mL)	280 (≈ 130 µg/mL)	280 (≈ 130 µg/mL)	550 (≈ 256 µg/mL)	280 (≈ 130 µg/mL)	280 (≈ 130 µg/mL)	280 (≈ 130 µg/mL)	550 (≈ 256 µg/mL)	280 (≈ 130 µg/mL)	550 (≈ 256 µg/mL)	280 (≈ 130 µg/mL)	280 (≈ 130 µg/mL)	280 (≈ 130 µg/mL)	280 (≈ 130 µg/mL)	70 (≈ 32.6 µg/mL)
COc1cc(/C=N/NC(N)=S)c2c(c1OCc1ccc(Cl)cc1)CN1CCc3cc4c(cc3C1C2)OCO4 (stereo not drawn)	230 (≈ 127 µg/mL)	230 (≈ 127 µg/mL)	230 (≈ 127 µg/mL)	230 (≈ 127 µg/mL)	470 (≈ 259 µg/mL)	230 (≈ 127 µg/mL)	470 (≈ 259 µg/mL)	230 (≈ 127 µg/mL)	230 (≈ 127 µg/mL)	230 (≈ 127 µg/mL)	230 (≈ 127 µg/mL)	230 (≈ 127 µg/mL)	120 (≈ 66.1 µg/mL)	230 (≈ 127 µg/mL)	470 (≈ 259 µg/mL)	470 (≈ 259 µg/mL)	230 (≈ 127 µg/mL)	7 (≈ 3.86 µg/mL)	230 (≈ 127 µg/mL)	470 (≈ 259 µg/mL)
CCCCCCCCOc1c(OC)cc(/C=N/NC(N)=S)c2c1CN1CCc3cc4c(cc3C1C2)OCO4 (stereo not drawn)	60 (≈ 32.3 µg/mL)	120 (≈ 64.6 µg/mL)	120 (≈ 64.6 µg/mL)	240 (≈ 129 µg/mL)	240 (≈ 129 µg/mL)	120 (≈ 64.6 µg/mL)	480 (≈ 259 µg/mL)	120 (≈ 64.6 µg/mL)	240 (≈ 129 µg/mL)	240 (≈ 129 µg/mL)	120 (≈ 64.6 µg/mL)	240 (≈ 129 µg/mL)	240 (≈ 129 µg/mL)	240 (≈ 129 µg/mL)	240 (≈ 129 µg/mL)	240 (≈ 129 µg/mL)	240 (≈ 129 µg/mL)	120 (≈ 64.6 µg/mL)	240 (≈ 129 µg/mL)	60 (≈ 32.3 µg/mL)
COc1cc(/C=N/NC(N)=S)c2c(c1OCCO)CN1CCc3cc4c(cc3C1C2)OCO4 (stereo not drawn)	270 (≈ 127 µg/mL)	30 (≈ 14.1 µg/mL)	140 (≈ 65.9 µg/mL)	270 (≈ 127 µg/mL)	270 (≈ 127 µg/mL)	140 (≈ 65.9 µg/mL)	540 (≈ 254 µg/mL)	270 (≈ 127 µg/mL)	140 (≈ 65.9 µg/mL)	270 (≈ 127 µg/mL)	270 (≈ 127 µg/mL)	270 (≈ 127 µg/mL)	270 (≈ 127 µg/mL)	540 (≈ 254 µg/mL)	270 (≈ 127 µg/mL)	270 (≈ 127 µg/mL)	270 (≈ 127 µg/mL)	20 (≈ 9.41 µg/mL)	270 (≈ 127 µg/mL)	270 (≈ 127 µg/mL)
COc1cc(/C=N/NC(N)=S)c2c(c1OCc1ccc(Cl)cc1Cl)CN1CCc3cc4c(cc3C1C2)OCO4 (stereo not drawn)	110 (≈ 64.4 µg/mL)	440 (≈ 258 µg/mL)	220 (≈ 129 µg/mL)	440 (≈ 258 µg/mL)	440 (≈ 258 µg/mL)	220 (≈ 129 µg/mL)	880 (≈ 515 µg/mL)	220 (≈ 129 µg/mL)	220 (≈ 129 µg/mL)	110 (≈ 64.4 µg/mL)	110 (≈ 64.4 µg/mL)	110 (≈ 64.4 µg/mL)	220 (≈ 129 µg/mL)	3 (≈ 1.76 µg/mL)	220 (≈ 129 µg/mL)	440 (≈ 258 µg/mL)	110 (≈ 64.4 µg/mL)	10 (≈ 5.86 µg/mL)	440 (≈ 258 µg/mL)	110 (≈ 64.4 µg/mL)
C#CCOc1c(OC)cc(/C=N/NC(N)=S)c2c1CN1CCc3cc4c(cc3C1C2)OCO4 (stereo not drawn)	70 (≈ 32.5 µg/mL)	550 (≈ 256 µg/mL)	550 (≈ 256 µg/mL)	140 (≈ 65 µg/mL)	550 (≈ 256 µg/mL)	550 (≈ 256 µg/mL)	280 (≈ 130 µg/mL)	140 (≈ 65 µg/mL)	1100 (≈ 511 µg/mL)	140 (≈ 65 µg/mL)	30 (≈ 13.9 µg/mL)	140 (≈ 65 µg/mL)	140 (≈ 65 µg/mL)	4 (≈ 1.86 µg/mL)	550 (≈ 256 µg/mL)	280 (≈ 130 µg/mL)	280 (≈ 130 µg/mL)	280 (≈ 130 µg/mL)	140 (≈ 65 µg/mL)	20 (≈ 9.29 µg/mL)
CCOc1c(OC)cc(/C=N/NC(N)=S)c2c1CN1CCc3cc4c(cc3C1C2)OCO4 (stereo not drawn)	70 (≈ 31.8 µg/mL)	140 (≈ 63.6 µg/mL)	70 (≈ 31.8 µg/mL)	280 (≈ 127 µg/mL)	560 (≈ 255 µg/mL)	70 (≈ 31.8 µg/mL)	280 (≈ 127 µg/mL)	280 (≈ 127 µg/mL)	280 (≈ 127 µg/mL)	140 (≈ 63.6 µg/mL)	140 (≈ 63.6 µg/mL)	140 (≈ 63.6 µg/mL)	280 (≈ 127 µg/mL)	140 (≈ 63.6 µg/mL)	280 (≈ 127 µg/mL)	280 (≈ 127 µg/mL)	140 (≈ 63.6 µg/mL)	70 (≈ 31.8 µg/mL)	280 (≈ 127 µg/mL)	140 (≈ 63.6 µg/mL)
CCn1cc(C(=O)O)c(=O)c2cc(F)c(N3CCNCC3)cc21 [NORFLOXACIN]	2 (≈ 0.639 µg/mL)	800 (≈ 255 µg/mL)	1600 (≈ 511 µg/mL)	50 (≈ 16 µg/mL)		50 (≈ 16 µg/mL)					30 (≈ 9.58 µg/mL)		800 (≈ 255 µg/mL)	800 (≈ 255 µg/mL)	3 (≈ 0.958 µg/mL)		6 (≈ 1.92 µg/mL)		1600 (≈ 511 µg/mL)	
COc1cc(/C=N/NC(N)=S)c2c(c1OCc1ccc([N+](=O)[O-])cc1)CN1CCc3cc4c(cc3C1C2)OCO4 (stereo not drawn)	230 (≈ 129 µg/mL)	230 (≈ 129 µg/mL)	230 (≈ 129 µg/mL)	110 (≈ 61.8 µg/mL)	460 (≈ 258 µg/mL)	230 (≈ 129 µg/mL)	460 (≈ 258 µg/mL)	460 (≈ 258 µg/mL)	230 (≈ 129 µg/mL)	230 (≈ 129 µg/mL)	230 (≈ 129 µg/mL)	230 (≈ 129 µg/mL)	460 (≈ 258 µg/mL)	460 (≈ 258 µg/mL)	460 (≈ 258 µg/mL)	460 (≈ 258 µg/mL)	110 (≈ 61.8 µg/mL)	110 (≈ 61.8 µg/mL)	110 (≈ 61.8 µg/mL)	460 (≈ 258 µg/mL)
COc1cc(/C=N/NC(N)=S)c2c(c1OCc1ccccc1Cl)CN1CCc3cc4c(cc3C1C2)OCO4 (stereo not drawn)	120 (≈ 66.1 µg/mL)	230 (≈ 127 µg/mL)	470 (≈ 259 µg/mL)	230 (≈ 127 µg/mL)	470 (≈ 259 µg/mL)	470 (≈ 259 µg/mL)	930 (≈ 512 µg/mL)	470 (≈ 259 µg/mL)	230 (≈ 127 µg/mL)	230 (≈ 127 µg/mL)	120 (≈ 66.1 µg/mL)	230 (≈ 127 µg/mL)	230 (≈ 127 µg/mL)	4 (≈ 2.2 µg/mL)	230 (≈ 127 µg/mL)	230 (≈ 127 µg/mL)	230 (≈ 127 µg/mL)	230 (≈ 127 µg/mL)	230 (≈ 127 µg/mL)	4 (≈ 2.2 µg/mL)
CCCCCCCCCCCCOc1c(OC)cc(/C=N/Nc2nccs2)c2c1CN1CCc3cc4c(cc3C1C2)OCO4 (stereo not drawn)	210 (≈ 130 µg/mL)			210 (≈ 130 µg/mL)	410 (≈ 254 µg/mL)	410 (≈ 254 µg/mL)	830 (≈ 514 µg/mL)		50 (≈ 30.9 µg/mL)			410 (≈ 254 µg/mL)			30 (≈ 18.6 µg/mL)	410 (≈ 254 µg/mL)	830 (≈ 514 µg/mL)	30 (≈ 18.6 µg/mL)		
OC(Cn1cncn1)(Cn1cncn1)c1ccc(F)cc1F [FLUCONAZOLE]					840 (≈ 257 µg/mL)		50 (≈ 15.3 µg/mL)	30 (≈ 9.19 µg/mL)	10 (≈ 3.06 µg/mL)	10 (≈ 3.06 µg/mL)		3 (≈ 0.919 µg/mL)				30 (≈ 9.19 µg/mL)		7 (≈ 2.14 µg/mL)		840 (≈ 257 µg/mL)
CCCCCCCCOc1c(OC)cc(/C=N/Nc2nccs2)c2c1CN1CCc3cc4c(cc3C1C2)OCO4 (stereo not drawn)	230 (≈ 129 µg/mL)			450 (≈ 253 µg/mL)	460 (≈ 259 µg/mL)	230 (≈ 129 µg/mL)	460 (≈ 259 µg/mL)		460 (≈ 259 µg/mL)			230 (≈ 129 µg/mL)			450 (≈ 253 µg/mL)	460 (≈ 259 µg/mL)	450 (≈ 253 µg/mL)	230 (≈ 129 µg/mL)		
C#CCOc1c(OC)cc(/C=N/Nc2nccs2)c2c1CN1CCc3cc4c(cc3C1C2)OCO4 (stereo not drawn)	130 (≈ 63.5 µg/mL)			130 (≈ 63.5 µg/mL)	1050 (≈ 513 µg/mL)	130 (≈ 63.5 µg/mL)	1050 (≈ 513 µg/mL)		1050 (≈ 513 µg/mL)			260 (≈ 127 µg/mL)			520 (≈ 254 µg/mL)	260 (≈ 127 µg/mL)	520 (≈ 254 µg/mL)	130 (≈ 63.5 µg/mL)		
